The text below walks through data of the Deep4Chem optical property database.

SMILES strings stand for the structures. Several values for one entry are separate records, joined by “and”; a condition that tells them apart may be missing. Identical values can stand only once.

A short description of the data set: photoluminescence quantum yield (fraction); solvent given as SMILES.

Take `CCC(=O)c1ccc2cc(N(C)C)ccc2c1`: the photoluminescence quantum yield is 0.83 (in C1CCOC1); 0.61 (in C1COCCO1); 0.94 (in CC#N); 0.02 (in CCCCCC); 0.019 (in CCCCCCC); 0.385 (in CCCCCCCCO). In addition, the photoluminescence quantum yield runs as follows: (in CCO) 0.95; (in CN(C)C=O) 0.92; (in CO) 0.71; (in CS(C)=O) 0.75; (in Cc1ccccc1) 0.52; (in ClC(Cl)Cl) 0.88. Moreover, the photoluminescence quantum yield (in ClCCl) worked out at 0.94.

`CC[N+]1(CC)CN2C(=N1)C(C(=O)O)=Cc1cc(SC)ccc12` returned a photoluminescence quantum yield (in O) of 0.308.

Take `CC[n+]1nc2cc3c4c(c2c2cc(F)ccc21)CCCN4CCC3`: the photoluminescence quantum yield (in O) is 0.34.

Compound `CC(C)c1cccc(C(C)C)c1-n1c(=O)c2cc3nc(-c4ccccc4)c4cc5c(=O)n(-c6c(C(C)C)cccc6C(C)C)c(=O)c6cc7nc(-c8ccccc8)c8cc(c1=O)c2c1c3c4c(c65)c7c81` came in with a photoluminescence quantum yield (in ClC(Cl)Cl) of 0.25.

For `CCC1=C(C)C2=C(c3cc(C4=C5C(C)=C(CC)C(C)=[N+]5[B-](F)(F)n5c(C)c(CC)c(C)c54)cc(C4=C5C(C)=C(CC)C(C)=[N+]5[B-](F)(F)n5c(C)c(CC)c(C)c54)c3)c3c(C)c(CC)c(C)n3[B-](F)(F)[N+]2=C1C`, the photoluminescence quantum yield runs as follows: (in C1CCOC1) 0.91; (in CC#N) 0.62; (in CN(C)C=O) 0.73; (in Cc1ccccc1) 0.95; (in ClC(Cl)Cl) 0.88.

Take `Cc1cc(C2=C(c3c(C)sc(-c4ccc(-c5nc(-c6ccccc6)c(-c6ccccc6)[nH]5)cc4)c3C)C(F)(F)C(F)(F)C2(F)F)c(C)s1`: the photoluminescence quantum yield (in C1CCOC1) is 0.077.

Compound `CCOC(=O)/C(C#N)=C\c1ccc2c(c1)c1ccccc1n2-c1ccc(C)cc1` displayed a photoluminescence quantum yield (in C1CCOC1) of 0.09; a photoluminescence quantum yield (in CC#N) of 0.01; a photoluminescence quantum yield (in CC(C)=O) of 0.025; a photoluminescence quantum yield (in CCOC(C)=O) of 0.11; a photoluminescence quantum yield (in CO) of 0.06; a photoluminescence quantum yield (in CS(C)=O) of 0.04. Also, the photoluminescence quantum yield (in Cc1ccccc1) is 0.095 and the photoluminescence quantum yield (in ClC(Cl)Cl) was 0.08.

On to `O=P1(c2ccccc2)c2cc(N3c4ccccc4Oc4ccccc43)ccc2-c2ccc(N3c4ccccc4Oc4ccccc43)cc21`, for which the photoluminescence quantum yield is, setting by setting: (in Cc1ccccc1) 0.47; (in c1ccc2c(c1)c1ccccc1n2-c1ccc(-c2ccc(-n3c4ccccc4c4ccccc43)cc2)cc1) 0.41.

Regarding `C=Cc1cc2ccc(N(CC)CC)cc2oc1=O`, the photoluminescence quantum yield (in CC#N) was determined as 0.98.

Consider `C1=Cc2ccccc2Cc2ccccc21`, for which the photoluminescence quantum yield amounted to 0.82 (in CC#N) and 0.016 (in CO).

`c1ccc(-c2nc(-c3ccccc3)nc(-c3ccc(-n4c5ccccc5c5c4c4ccccc4n5-c4ccccc4)cc3)n2)cc1` registered a photoluminescence quantum yield (in Cc1ccccc1) of 0.445.

Where the note is “in ClC(Cl)Cl”, `Cc1ccc(/C2=c3\cc/c(o3)=C(\c3ccc(C)cc3)c3ccc([nH]3)-c3ccc4n3[B-](F)(F)[N+]3=C(C=CC3=C4c3ccc[nH]3)c3ccc2[nH]3)cc1` registered a photoluminescence quantum yield of 0.12.

Consider `Brc1cnc(-c2ccncc2)s1`, for which the photoluminescence quantum yield (in CO) stood at 0.02.

For the compound `CCCCCCCCC1(CCCCCCCC)c2ccccc2-c2ccc(N(c3ccc(-n4c5ccccc5c5ccccc54)cc3)c3ccc4c(c3)C(CCCCCCCC)(CCCCCCCC)c3ccccc3-4)cc21`, the photoluminescence quantum yield (in C1CCOC1) is 0.24; the photoluminescence quantum yield (in CC#N) was found to be 0.31; the photoluminescence quantum yield (in CC(C)=O) amounted to 0.31; the photoluminescence quantum yield (in CCCCCC) amounted to 0.27; the photoluminescence quantum yield (in CCCCOCCCC) is 0.25; the photoluminescence quantum yield (in CCN(CC)CC) was 0.27. Further, the photoluminescence quantum yield is, setting by setting: (in CCOC(C)=O) 0.3; (in CCOCC) 0.37; (in CN(C)C=O) 0.32; (in Cc1ccccc1) 0.36; (in ClCCl) 0.3.

`CCOC(=O)C1=C(N)n2c(=O)c3ccccc3c(=O)n2C1c1cccs1` (stereo not drawn) returned a photoluminescence quantum yield (in CS(C)=O) of 0.075.

Under “in ClCCl”, `CCCCNc1ccc2n1[B-](F)(F)[N+]1=CC(/C=C/C(=O)OC(C)(C)C)=CC1=C2c1c(C)cc(C)cc1C` had a photoluminescence quantum yield of 0.59.

On to `CCCCCCc1ccc(-n2c3c4cccc(OC)c4nnc3c3c2c2nnc4c(OC)cccc4c2n3-c2ccc(CCCCCC)cc2)cc1`, for which, where the note is “in Cc1ccccc1”, the photoluminescence quantum yield amounted to 0.

For the compound `O=c1oc2ccccc2cc1-c1nc2ccccc2o1`, the photoluminescence quantum yield (in C1CCOC1) was 0.77; the photoluminescence quantum yield (in C1COCCO1) is 0.84; the photoluminescence quantum yield (in CC1CCCCC1) worked out at 0.94; the photoluminescence quantum yield (in CC#N) came to 0.72; the photoluminescence quantum yield (in CC(C)=O) amounted to 0.76; the photoluminescence quantum yield (in CC(C)CO) turned out to be 0.8. This compound also registered a photoluminescence quantum yield (in CC(C)O) of 0.76; a photoluminescence quantum yield (in CCOC(C)=O) of 0.86; a photoluminescence quantum yield (in CN(C)C=O) of 0.72; a photoluminescence quantum yield (in CO) of 0.67; a photoluminescence quantum yield (in CS(C)=O) of 0.77; a photoluminescence quantum yield (in Cc1ccccc1) of 0.83. Also, the photoluminescence quantum yield runs as follows: (in ClC(Cl)(Cl)Cl) 0.92; (in ClC(Cl)Cl) 0.87; (in OCCO) 0.68.

Under “in ClC(Cl)Cl”, `CC(=O)OCCN1C(=O)c2cccc3c(Oc4ccc(C#N)cc4)ccc(c23)C1=O` displayed a photoluminescence quantum yield of 0.37.

Compound `CC(C)(C)c1ccc(-n2c(-c3ccc(-c4ccc(N(c5ccccc5)c5ccccc5)cc4)cc3)nc3c4ccccc4c4ccccc4c32)cc1` returned a photoluminescence quantum yield (in ClCCl) of 1.

As for `CN(C)c1ccc(/C=C/c2nc3ccccc3o2)cc1`, the photoluminescence quantum yield runs as follows: (in C1CCCCC1) 0.005; (in CO) 0.007.

`O=Cc1cnc(-c2c3ccccc3cc3ccccc23)nc1`: the photoluminescence quantum yield turned out to be 0.25 (in CCO) and 0.28 (in ClCCl).

As for `COOCc1noc(-c2ccccc2)c1Cl`, the photoluminescence quantum yield (in C1CCCCC1) is 0.006.

Consider `N#Cc1cc2ccccc2oc1=N`, for which the photoluminescence quantum yield is, setting by setting: (in C1CCOC1) 0.0681; (in CC#N) 0.00119; (in CCOC(C)=O) 0.0842; (in CS(C)=O) 0.00124; (in ClC(Cl)Cl) 0.0946.

In turn, `C1=Cc2ccccc2C(=Cc2ccc(-c3cc(-c4ccc(C=C5c6ccccc6C=Cc6ccccc65)cc4)cc(-c4ccc(C=C5c6ccccc6C=Cc6ccccc65)cc4)c3)cc2)c2ccccc21` came in with a photoluminescence quantum yield (in C1CCOC1) of 0.0023.

For the setting “in Cc1ccccc1”, `C(#Cc1ccc2ccc3cccc4ccc1c2c34)c1ccccc1` gave a photoluminescence quantum yield of 0.61.

`O=c1cc(-c2ccccc2)oc(-c2ccc(-c3nc4ccccn4c3NC3CCCCC3)cc2)c1` returned a photoluminescence quantum yield (in ClCCl) of 0.028.

As to `C#CCNC1=C2C=CC=[N+]2[B-](F)(F)n2cccc21`, the photoluminescence quantum yield is 0.93 and 0.999 (in C1CCCCC1); 0.86 (in CC(C)=O); 0.79 (in CCCCO); 0.741 (in CCCO); 0.66 and 0.6 (in CCO); 0.94 (in CCOC(C)=O). Further, the photoluminescence quantum yield is, setting by setting: (in CN(C)C=O) 0.442; (in CO) 0.52; (in CS(C)=O) 0.278; (in Cc1ccccc1) 0.92; (in ClC(Cl)Cl) 0.829; (in OCC(F)(F)F) 0.88. For the setting “in c1ccccc1”, the photoluminescence quantum yield was found to be 0.924.

For `Nc1cc([NH3+])cc(-c2nc3ccccc3s2)c1`, the photoluminescence quantum yield (in O) was 0.064.

Turning to `CC(C)(C)c1ccc2oc3nc4oc5ccc(N6c7ccccc7Sc7ccccc76)cc5c4cc3c2c1`, the photoluminescence quantum yield (in ClC(Cl)Cl) worked out at 0.016.

Turning to `O=[N+]([O-])c1ccc(NCCNCc2c3ccccc3cc3ccccc23)c([N+](=O)[O-])c1`, the photoluminescence quantum yield reads like this: (in C1CCCCC1) 0.0003; (in C1CCOC1) 0.00044; (in CC#N) 0.00168; (in CC(C)=O) 0.0024; (in CCO) 0.0363; (in CN(C)C=O) 0.00369. Moreover, the photoluminescence quantum yield worked out at 0.0334 (in CO) and 0.0061 (in ClC(Cl)Cl).

As to `S=P1(c2ccccc2)C(c2ccccc2)=Cc2cc3ccccc3cc21` (stereo not drawn), the photoluminescence quantum yield (in ClCCl) was 0.001.

With `CCC1=C(C)C2=Cc3ccccc3B(O)N2C1=O`, the photoluminescence quantum yield reads like this: (in CC#N) 0.42; (in CCCCCC) 0.25; (in CO) 0.12; (in CS(C)=O) 0.19; (in ClC(Cl)Cl) 0.36.

Regarding `Cc1ccc(-c2ccc(/C=C/c3ccc(Br)n3C)cn2)nc1`, the photoluminescence quantum yield (in CC#N) is 0.13.

`CN(C)c1ccc2c3c(c(=O)oc2c1)C=c1cc2c(cc1O3)=[N+](CCC(=O)O)CCC2`: the photoluminescence quantum yield is 0.242 (in CC#N), 0.166 (in CO), 0.685 (in ClCCl) and 0.041 (in O).

For the compound `c1ccc(-c2nc3sc4ccccc4c3s2)nc1`, under “in CS(C)=O”, the photoluminescence quantum yield worked out at 0.82.

As for `c1cc2c3c(cccc3c1)C(N1CCOCCOCCN(C3=Nc4cccc5cccc3c45)CCOCC1)=N2`, the photoluminescence quantum yield (in CC#N) was found to be 0.0051.

As for `F[B-]1(F)n2c(-c3ccccc3)c3ccc4ccccc4c3c2N=C2c3c(ccc4ccccc34)C(c3ccccc3)=[N+]21`, where the note is “in ClCCl”, the photoluminescence quantum yield amounted to 0.14.

`CCn1c(-c2ccc(-c3ccc(-c4ccc(-c5n(CC)c6cc(C)ccc6[n+]5CC)cc4)cc3)cc2)[n+](CC)c2ccc(C)cc21`: the photoluminescence quantum yield (in O) stood at 0.72.

Consider `CCCCn1c2ccc(C#N)cc2c2cc(C#N)cc(-c3ccc(N(c4ccccc4)c4ccccc4)cc3)c21`, for which the photoluminescence quantum yield (in ClCCl) stood at 0.65.

For `C=Cc1cc2ccc(OC(=O)c3ccccc3)cc2oc1=O`, the photoluminescence quantum yield (in CC#N) worked out at 0.23.

The compound `O=c1oc2ccccc2cc1-c1ccc(-c2ccc(-c3cc4ccccc4oc3=O)cc2)cc1` yielded a photoluminescence quantum yield (in ClCCl) of 0.49.
